Data: patent US20260085053A1, “BENZOFURAN DERIVATIVES AS SIK INHIBITORS AND THE USE THEREOF” (BEONE MEDICINES I GMBH, priority 2023, published 2026)

Columns and labels:
[1] = target: T1, SIK1 kinase (aa1-303, Thermo Fisher) (Homo sapiens, UniProt P57059); experiment: Biochemical activities determination for SIK1 protein (TR-FRET); conditions: 110 uM ATP, 0.5 μM STK1 substrate
T1 construct: SIK1 kinase (aa1-303, Thermo Fisher); purchased Thermo Fisher
Summary of the method: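 TR-FRET kinase assay with SIK1 (aa1-303), 110 uM ATP, 0.5 μM STK1 substrate and 0-10 μM compound in Tris pH 7.5 with MgCl2, EGTA, DTT, Triton X-100. Enzyme preincubated with compound 60 min, reaction 180 min at room temperature; 665/620 nm ratio after overnight detection; IC50 from four-parameter logistic fit.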

[2] = target: T2, SIK2 kinase (full length, Thermo Fisher) (Homo sapiens, UniProt Q9H0K1); experiment: Biochemical activities determination for SIK2 protein (TR-FRET); conditions: 80 uM ATP, 0.5 μM substrate
T2 construct: SIK2 kinase (full length, Thermo Fisher); purchased Thermo Fisher
T2 sequence (Q9H0K1 whole entry): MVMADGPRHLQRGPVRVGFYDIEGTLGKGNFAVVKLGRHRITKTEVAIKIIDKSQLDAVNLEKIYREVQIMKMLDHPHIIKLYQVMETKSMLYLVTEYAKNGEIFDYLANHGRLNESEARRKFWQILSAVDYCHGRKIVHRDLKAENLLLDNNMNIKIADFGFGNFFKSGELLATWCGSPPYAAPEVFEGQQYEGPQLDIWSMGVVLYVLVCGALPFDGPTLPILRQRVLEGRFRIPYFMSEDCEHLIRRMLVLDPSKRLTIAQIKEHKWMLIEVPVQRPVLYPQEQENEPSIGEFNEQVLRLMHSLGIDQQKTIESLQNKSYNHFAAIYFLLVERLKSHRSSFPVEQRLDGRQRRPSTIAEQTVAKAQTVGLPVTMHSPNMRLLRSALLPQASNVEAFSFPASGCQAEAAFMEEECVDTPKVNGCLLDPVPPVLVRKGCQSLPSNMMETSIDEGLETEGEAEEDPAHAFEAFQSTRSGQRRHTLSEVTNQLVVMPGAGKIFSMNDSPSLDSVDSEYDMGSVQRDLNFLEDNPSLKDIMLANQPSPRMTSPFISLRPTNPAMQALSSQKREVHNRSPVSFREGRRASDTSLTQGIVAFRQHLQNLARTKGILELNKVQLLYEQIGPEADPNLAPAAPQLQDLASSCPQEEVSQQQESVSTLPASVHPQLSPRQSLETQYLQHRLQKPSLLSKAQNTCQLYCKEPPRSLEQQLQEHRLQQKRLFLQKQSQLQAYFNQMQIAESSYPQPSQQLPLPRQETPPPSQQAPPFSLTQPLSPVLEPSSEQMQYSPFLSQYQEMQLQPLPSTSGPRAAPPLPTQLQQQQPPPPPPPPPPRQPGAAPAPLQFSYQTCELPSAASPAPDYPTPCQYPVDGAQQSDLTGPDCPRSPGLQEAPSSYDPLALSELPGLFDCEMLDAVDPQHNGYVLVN
Summary of the method: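 Full-length SIK2 preincubated 60 min with 0–10 μM compound, then reacted 180 min at room temperature with 80 uM ATP and 0.5 μM biotinylated substrate (pH 7.5 Tris/MgCl2 buffer). Phosphorylation detected by TR-FRET (665/620 nm ratio, cryptate antibody/streptavidin-XL665) after overnight incubation; IC50 from four-parameter logistic fit.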

[3] = target: T3, SIK3 kinase (aa59-365, Thermo Fisher) (Homo sapiens, UniProt Q9Y2K2); experiment: Biochemical activities determination for SIK3 protein (TR-FRET); conditions: 125 uM ATP, 0.5 μM STK1 substrate
T3 construct: SIK3 kinase (aa59-365, Thermo Fisher); purchased Thermo Fisher
T3 sequence (Q9Y2K2 59-365): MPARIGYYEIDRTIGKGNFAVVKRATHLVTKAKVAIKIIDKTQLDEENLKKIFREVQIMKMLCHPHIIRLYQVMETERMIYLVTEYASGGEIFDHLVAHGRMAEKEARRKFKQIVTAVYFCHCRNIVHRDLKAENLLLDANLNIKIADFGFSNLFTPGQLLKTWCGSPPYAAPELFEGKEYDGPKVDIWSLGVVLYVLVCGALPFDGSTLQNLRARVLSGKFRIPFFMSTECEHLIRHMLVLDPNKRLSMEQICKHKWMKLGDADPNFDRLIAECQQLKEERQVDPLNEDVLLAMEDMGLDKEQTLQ
Summary of the method: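 SIK3 (aa59-365) was preincubated with compound (0-10 μM) for 60 min at room temperature in Tris buffer pH 7.5. The reaction was then started with 125 uM ATP and 0.5 μM STK1 substrate and run 180 min at room temperature. Phospho-substrate was detected by HTRF (665/620 nm ratio), and IC50 came from a four-parameter logistic fit.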

T1 sequence (P57059 1-303): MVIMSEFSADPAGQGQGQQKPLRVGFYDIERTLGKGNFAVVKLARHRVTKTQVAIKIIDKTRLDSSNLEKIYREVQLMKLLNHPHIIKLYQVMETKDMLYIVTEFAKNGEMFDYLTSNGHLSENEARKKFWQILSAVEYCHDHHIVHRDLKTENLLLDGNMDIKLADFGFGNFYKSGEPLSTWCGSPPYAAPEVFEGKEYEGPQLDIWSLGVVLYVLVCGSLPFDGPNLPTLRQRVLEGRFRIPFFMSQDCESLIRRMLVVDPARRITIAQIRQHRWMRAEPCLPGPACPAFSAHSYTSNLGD

Structure (SMILES) | IC50 [1] [nM] | IC50 [2] [nM] | IC50 [3] [nM]
CN(C)CCOc1cc(-c2coc3cc(OCCN4CCCC4)ccc23)cc(OC(F)F)c1C(=O)NC1CC1 [Compound 118, N-cyclopropyl-2-(difluoromethoxy)-6-(2-(dimethylamino)ethoxy)-4-(6-(2-(pyrrolidin-1-yl)ethoxy)benzofuran-3-yl)benzamide] | > 10000 | 781 | 6310
CCOc1cc(-c2coc3cc(OCCN4CCCC4)ccc23)cc(OC(F)F)c1C(=O)NC1CC1 [Compound 119, N-cyclopropyl-2-(difluoromethoxy)-6-ethoxy-4-(6-(2-(pyrrolidin-1-yl)ethoxy)benzofuran-3-yl)benzamide] | 7180 | 136 | 452
CC(C)Oc1cc(-c2coc3cc(OCCN4CCCC4)ccc23)cc(OC(F)F)c1C(=O)NC1CC1 [Compound 120, N-cyclopropyl-2-(difluoromethoxy)-6-isopropoxy-4-(6-(2-(pyrrolidin-1-yl)ethoxy)benzofuran-3-yl)benzamide] | > 10000 | 619 | 2540
O=C(NC1CC1)c1c(OC(F)F)cc(-c2coc3cc(OCCN4CCCC4)ccc23)cc1OC1CC1 [Compound 121, 2-cyclopropoxy-N-cyclopropyl-6-(difluoromethoxy)-4-(6-(2-(pyrrolidin-1-yl)ethoxy)benzofuran-3-yl)benzamide] | > 10000 | 438 | 2120
CNc1cc(-c2coc3cc(OCCN4CCCC4)ccc23)cc(OC(F)F)c1C(=O)NC1CC1 [Compound 122, N-cyclopropyl-2-(difluoromethoxy)-6-(methylamino)-4-(6-(2-(pyrrolidin-1-yl)ethoxy)benzofuran-3-yl)benzamide] | 3960 | 45 | 158
O=C(NC1CC1)c1c(OC(F)F)cc(-c2coc3cc(OCCN4CCCC4)ccc23)cc1OC(F)F [Compound 123, N-cyclopropyl-2,6-bis(difluoromethoxy)-4-(6-(2-(pyrrolidin-1-yl)ethoxy)benzofuran-3-yl)benzamide] | 8000 | 114 | 506

The next lines start with the values.

IC50 [1] [nM] | IC50 [2] [nM] | IC50 [3] [nM] | Structure (SMILES)
> 10000 | 385 | 2490 | COc1cc(-c2coc3cc(OCCN4CCCC4)ccc23)cc(OC(F)F)c1C(=O)N[C@H]1CCCC[C@H]1O [Compound 125, 2-(difluoromethoxy)-N-((1S,2R)-2-hydroxycyclohexyl)-6-methoxy-4-(6-(2-(pyrrolidin-1-yl)ethoxy)benzofuran-3-yl)benzamide]
> 10000 | 224 | 878 | COc1cc(-c2coc3cc(OCCN4CCCC4)ccc23)cc(OC(F)F)c1C(=O)N[C@H]1CCC[C@H]1O [Compound 126, 2-(difluoromethoxy)-N-((1S,2R)-2-hydroxycyclopentyl)-6-methoxy-4-(6-(2-(pyrrolidin-1-yl)ethoxy)benzofuran-3-yl)benzamide]
> 10000 | 619 | 2900 | COc1cc(-c2coc3cc(OCCN4CCCC4)ccc23)cc(OC(F)F)c1C(=O)NC1CCCCC1 [Compound 127, N-cyclohexyl-2-(difluoromethoxy)-6-methoxy-4-(6-(2-(pyrrolidin-1-yl)ethoxy)benzofuran-3-yl)benzamide]
> 10000 | 156 | 812 | COc1cc(-c2coc3cc(OCCN4CCCC4)ccc23)cc(OC(F)F)c1C(=O)NC1CCCC1 [Compound 128, N-cyclopentyl-2-(difluoromethoxy)-6-methoxy-4-(6-(2-(pyrrolidin-1-yl)ethoxy)benzofuran-3-yl)benzamide]
> 10000 | 146 | 683 | COc1cc(-c2coc3cc(OCCN4CCCC4)ccc23)cc(OC(F)F)c1C(=O)NC1CCC1 [Compound 129, N-cyclobutyl-2-(difluoromethoxy)-6-methoxy-4-(6-(2-(pyrrolidin-1-yl)ethoxy)benzofuran-3-yl)benzamide]
